# System: BT-549
# Test: normalised response (% of control), CellTiter-Glo; higher = more viable cells (100 = DMSO, 0 = benzethonium chloride kill control)
# Details: incubation time: 72 h
# Experimental: (§1)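 DSRT, 72 h incubation, CellTox Green / CellTiter-Glo readout. Signal is normalised to DMSO and benzethonium chloride controls. Value is the normalised response at the highest dose.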
row,SMILES,normalised response [%]
1,CCn1c(-c2nonc2N)nc2cnc(Oc3cccc(NC(=O)c4ccc(OCCN5CCOCC5)cc4)c3)cc21 (10000 nM),41.4
2,COc1cc(O)c2c(c1)/C=C/C[C@H](O)[C@H](O)C(=O)/C=C\C[C@H](C)OC2=O [(5Z)-7-Oxozeaenol] (10000 nM),4.83
3,CNC(=O)c1cccc(-c2ccc3c(N4CCOC[C@@H]4C)nc(N4CCOC[C@@H]4C)nc3n2)c1 [AZD2014] (10000 nM),19.9
4,Nc1cc(C(F)(F)F)c(-c2cc(N3CCOCC3)nc(N3CCOCC3)n2)cn1 [Buparlisib] (10000 nM),3.53
5,CNC(=O)c1ccc(N2C(=S)N(c3ccc(C#N)c(C(F)(F)F)c3)C(=O)C2(C)C)cc1F [Enzalutamide] (10000 nM),100
6,CCOC(=O)CCNc1cc(N2CCc3ccccc3CC2)nc(-c2ccccn2)n1 [GSK-J4] (100000 nM),0.26
7,Cc1cc(Nc2cc(CN3CCOCC3)c3nc(C)c(Cc4ccc(Cl)cc4F)n3n2)n[nH]1 [Gandotinib] (10000 nM),14.2
8,CNC(=O)c1ccc(N2C(=S)N(c3ccc(C#N)c(C(F)(F)F)c3)C(=O)C23CCC3)cc1F [RD162] (10000 nM),96.3
9,S=P(N1CC1)(N1CC1)N1CC1 [Thio-TEPA] (50000 nM),77.2

# System: HCC1143
# Test: as above
# Details: incubation time: 72 h
# Experimental: as §1
row,SMILES,normalised response [%]
1,CCn1c(-c2nonc2N)nc2cnc(Oc3cccc(NC(=O)c4ccc(OCCN5CCOCC5)cc4)c3)cc21 (10000 nM),76.4
2,COc1cc(O)c2c(c1)/C=C/C[C@H](O)[C@H](O)C(=O)/C=C\C[C@H](C)OC2=O [(5Z)-7-Oxozeaenol] (10000 nM),39.9
3,CNC(=O)c1cccc(-c2ccc3c(N4CCOC[C@@H]4C)nc(N4CCOC[C@@H]4C)nc3n2)c1 [AZD2014] (10000 nM),25.4
4,Nc1cc(C(F)(F)F)c(-c2cc(N3CCOCC3)nc(N3CCOCC3)n2)cn1 [Buparlisib] (10000 nM),57.4
5,CNC(=O)c1ccc(N2C(=S)N(c3ccc(C#N)c(C(F)(F)F)c3)C(=O)C2(C)C)cc1F [Enzalutamide] (10000 nM),96.6
6,CCOC(=O)CCNc1cc(N2CCc3ccccc3CC2)nc(-c2ccccn2)n1 [GSK-J4] (100000 nM),-0.1
7,Cc1cc(Nc2cc(CN3CCOCC3)c3nc(C)c(Cc4ccc(Cl)cc4F)n3n2)n[nH]1 [Gandotinib] (10000 nM),51.7
8,CNC(=O)c1ccc(N2C(=S)N(c3ccc(C#N)c(C(F)(F)F)c3)C(=O)C23CCC3)cc1F [RD162] (10000 nM),95
9,S=P(N1CC1)(N1CC1)N1CC1 [Thio-TEPA] (50000 nM),95.6

# System: HDQ-P1
# Test: as above
# Details: incubation time: 72 h
# Experimental: as §1
row,SMILES,normalised response [%]
1,CCn1c(-c2nonc2N)nc2cnc(Oc3cccc(NC(=O)c4ccc(OCCN5CCOCC5)cc4)c3)cc21 (10000 nM),75.9
2,COc1cc(O)c2c(c1)/C=C/C[C@H](O)[C@H](O)C(=O)/C=C\C[C@H](C)OC2=O [(5Z)-7-Oxozeaenol] (10000 nM),20.5
3,CNC(=O)c1cccc(-c2ccc3c(N4CCOC[C@@H]4C)nc(N4CCOC[C@@H]4C)nc3n2)c1 [AZD2014] (10000 nM),34.1
4,Nc1cc(C(F)(F)F)c(-c2cc(N3CCOCC3)nc(N3CCOCC3)n2)cn1 [Buparlisib] (10000 nM),46.9
5,CNC(=O)c1ccc(N2C(=S)N(c3ccc(C#N)c(C(F)(F)F)c3)C(=O)C2(C)C)cc1F [Enzalutamide] (10000 nM),86.5
6,CCOC(=O)CCNc1cc(N2CCc3ccccc3CC2)nc(-c2ccccn2)n1 [GSK-J4] (100000 nM),1.14
7,Cc1cc(Nc2cc(CN3CCOCC3)c3nc(C)c(Cc4ccc(Cl)cc4F)n3n2)n[nH]1 [Gandotinib] (10000 nM),39.4
8,CNC(=O)c1ccc(N2C(=S)N(c3ccc(C#N)c(C(F)(F)F)c3)C(=O)C23CCC3)cc1F [RD162] (10000 nM),92.3
9,S=P(N1CC1)(N1CC1)N1CC1 [Thio-TEPA] (50000 nM),99.7

# System: SK-BR-3
# Test: as above
# Details: incubation time: 72 h
# Experimental: as §1
row,SMILES,normalised response [%]
1,CCn1c(-c2nonc2N)nc2cnc(Oc3cccc(NC(=O)c4ccc(OCCN5CCOCC5)cc4)c3)cc21 (10000 nM),40.9
2,COc1cc(O)c2c(c1)/C=C/C[C@H](O)[C@H](O)C(=O)/C=C\C[C@H](C)OC2=O [(5Z)-7-Oxozeaenol] (10000 nM),23.5
3,CNC(=O)c1cccc(-c2ccc3c(N4CCOC[C@@H]4C)nc(N4CCOC[C@@H]4C)nc3n2)c1 [AZD2014] (10000 nM),20
4,Nc1cc(C(F)(F)F)c(-c2cc(N3CCOCC3)nc(N3CCOCC3)n2)cn1 [Buparlisib] (10000 nM),81.5
5,CNC(=O)c1ccc(N2C(=S)N(c3ccc(C#N)c(C(F)(F)F)c3)C(=O)C2(C)C)cc1F [Enzalutamide] (10000 nM),99
6,CCOC(=O)CCNc1cc(N2CCc3ccccc3CC2)nc(-c2ccccn2)n1 [GSK-J4] (100000 nM),-0.42
7,Cc1cc(Nc2cc(CN3CCOCC3)c3nc(C)c(Cc4ccc(Cl)cc4F)n3n2)n[nH]1 [Gandotinib] (10000 nM),50.8
8,CNC(=O)c1ccc(N2C(=S)N(c3ccc(C#N)c(C(F)(F)F)c3)C(=O)C23CCC3)cc1F [RD162] (10000 nM),95.3
9,S=P(N1CC1)(N1CC1)N1CC1 [Thio-TEPA] (50000 nM),101

# System: HCC1599
# Test: as above
# Details: incubation time: 72 h
# Experimental: as §1
row,SMILES,normalised response [%]
1,CCn1c(-c2nonc2N)nc2cnc(Oc3cccc(NC(=O)c4ccc(OCCN5CCOCC5)cc4)c3)cc21 (10000 nM),74.6
2,COc1cc(O)c2c(c1)/C=C/C[C@H](O)[C@H](O)C(=O)/C=C\C[C@H](C)OC2=O [(5Z)-7-Oxozeaenol] (10000 nM),32.7
3,CNC(=O)c1cccc(-c2ccc3c(N4CCOC[C@@H]4C)nc(N4CCOC[C@@H]4C)nc3n2)c1 [AZD2014] (10000 nM),65.3
4,Nc1cc(C(F)(F)F)c(-c2cc(N3CCOCC3)nc(N3CCOCC3)n2)cn1 [Buparlisib] (10000 nM),94.3
5,CNC(=O)c1ccc(N2C(=S)N(c3ccc(C#N)c(C(F)(F)F)c3)C(=O)C2(C)C)cc1F [Enzalutamide] (10000 nM),102
6,CCOC(=O)CCNc1cc(N2CCc3ccccc3CC2)nc(-c2ccccn2)n1 [GSK-J4] (100000 nM),-0.22
7,Cc1cc(Nc2cc(CN3CCOCC3)c3nc(C)c(Cc4ccc(Cl)cc4F)n3n2)n[nH]1 [Gandotinib] (10000 nM),75.9
8,CNC(=O)c1ccc(N2C(=S)N(c3ccc(C#N)c(C(F)(F)F)c3)C(=O)C23CCC3)cc1F [RD162] (10000 nM),106
9,S=P(N1CC1)(N1CC1)N1CC1 [Thio-TEPA] (50000 nM),111

# System: CAL-148
# Test: as above
# Details: incubation time: 72 h
# Experimental: as §1
row,SMILES,normalised response [%]
1,CCn1c(-c2nonc2N)nc2cnc(Oc3cccc(NC(=O)c4ccc(OCCN5CCOCC5)cc4)c3)cc21 (10000 nM),69.9
2,COc1cc(O)c2c(c1)/C=C/C[C@H](O)[C@H](O)C(=O)/C=C\C[C@H](C)OC2=O [(5Z)-7-Oxozeaenol] (10000 nM),26.9
3,CNC(=O)c1cccc(-c2ccc3c(N4CCOC[C@@H]4C)nc(N4CCOC[C@@H]4C)nc3n2)c1 [AZD2014] (10000 nM),15.3
4,Nc1cc(C(F)(F)F)c(-c2cc(N3CCOCC3)nc(N3CCOCC3)n2)cn1 [Buparlisib] (10000 nM),79.9
5,CNC(=O)c1ccc(N2C(=S)N(c3ccc(C#N)c(C(F)(F)F)c3)C(=O)C2(C)C)cc1F [Enzalutamide] (10000 nM),96.1
6,CCOC(=O)CCNc1cc(N2CCc3ccccc3CC2)nc(-c2ccccn2)n1 [GSK-J4] (100000 nM),0.06
7,Cc1cc(Nc2cc(CN3CCOCC3)c3nc(C)c(Cc4ccc(Cl)cc4F)n3n2)n[nH]1 [Gandotinib] (10000 nM),96.7
8,CNC(=O)c1ccc(N2C(=S)N(c3ccc(C#N)c(C(F)(F)F)c3)C(=O)C23CCC3)cc1F [RD162] (10000 nM),105
9,S=P(N1CC1)(N1CC1)N1CC1 [Thio-TEPA] (50000 nM),98.1

# System: CAL-51
# Test: as above
# Details: incubation time: 72 h
# Experimental: as §1
row,SMILES,normalised response [%]
1,CCn1c(-c2nonc2N)nc2cnc(Oc3cccc(NC(=O)c4ccc(OCCN5CCOCC5)cc4)c3)cc21 (10000 nM),32.8
2,COc1cc(O)c2c(c1)/C=C/C[C@H](O)[C@H](O)C(=O)/C=C\C[C@H](C)OC2=O [(5Z)-7-Oxozeaenol] (10000 nM),3.02
3,CNC(=O)c1cccc(-c2ccc3c(N4CCOC[C@@H]4C)nc(N4CCOC[C@@H]4C)nc3n2)c1 [AZD2014] (10000 nM),20.6
4,Nc1cc(C(F)(F)F)c(-c2cc(N3CCOCC3)nc(N3CCOCC3)n2)cn1 [Buparlisib] (10000 nM),1.1
5,CNC(=O)c1ccc(N2C(=S)N(c3ccc(C#N)c(C(F)(F)F)c3)C(=O)C2(C)C)cc1F [Enzalutamide] (10000 nM),80.3
6,CCOC(=O)CCNc1cc(N2CCc3ccccc3CC2)nc(-c2ccccn2)n1 [GSK-J4] (100000 nM),0.09
7,Cc1cc(Nc2cc(CN3CCOCC3)c3nc(C)c(Cc4ccc(Cl)cc4F)n3n2)n[nH]1 [Gandotinib] (10000 nM),26
8,CNC(=O)c1ccc(N2C(=S)N(c3ccc(C#N)c(C(F)(F)F)c3)C(=O)C23CCC3)cc1F [RD162] (10000 nM),95.3
9,S=P(N1CC1)(N1CC1)N1CC1 [Thio-TEPA] (50000 nM),63.8

# System: MFM-223
# Test: as above
# Details: incubation time: 72 h
# Experimental: as §1
row,SMILES,normalised response [%]
1,CCn1c(-c2nonc2N)nc2cnc(Oc3cccc(NC(=O)c4ccc(OCCN5CCOCC5)cc4)c3)cc21 (10000 nM),62.1
2,COc1cc(O)c2c(c1)/C=C/C[C@H](O)[C@H](O)C(=O)/C=C\C[C@H](C)OC2=O [(5Z)-7-Oxozeaenol] (10000 nM),25.6
3,CNC(=O)c1cccc(-c2ccc3c(N4CCOC[C@@H]4C)nc(N4CCOC[C@@H]4C)nc3n2)c1 [AZD2014] (10000 nM),33.6
4,Nc1cc(C(F)(F)F)c(-c2cc(N3CCOCC3)nc(N3CCOCC3)n2)cn1 [Buparlisib] (10000 nM),47.8
5,CNC(=O)c1ccc(N2C(=S)N(c3ccc(C#N)c(C(F)(F)F)c3)C(=O)C2(C)C)cc1F [Enzalutamide] (10000 nM),89.3
6,CCOC(=O)CCNc1cc(N2CCc3ccccc3CC2)nc(-c2ccccn2)n1 [GSK-J4] (100000 nM),-0.08
7,Cc1cc(Nc2cc(CN3CCOCC3)c3nc(C)c(Cc4ccc(Cl)cc4F)n3n2)n[nH]1 [Gandotinib] (10000 nM),59.8
8,CNC(=O)c1ccc(N2C(=S)N(c3ccc(C#N)c(C(F)(F)F)c3)C(=O)C23CCC3)cc1F [RD162] (10000 nM),89.5
9,S=P(N1CC1)(N1CC1)N1CC1 [Thio-TEPA] (50000 nM),101

# System: MDA-MB-436
# Test: as above
# Details: incubation time: 72 h
# Experimental: as §1
row,SMILES,normalised response [%]
1,CCn1c(-c2nonc2N)nc2cnc(Oc3cccc(NC(=O)c4ccc(OCCN5CCOCC5)cc4)c3)cc21 (10000 nM),73.3
2,COc1cc(O)c2c(c1)/C=C/C[C@H](O)[C@H](O)C(=O)/C=C\C[C@H](C)OC2=O [(5Z)-7-Oxozeaenol] (10000 nM),25.1
3,CNC(=O)c1cccc(-c2ccc3c(N4CCOC[C@@H]4C)nc(N4CCOC[C@@H]4C)nc3n2)c1 [AZD2014] (10000 nM),54.4
4,Nc1cc(C(F)(F)F)c(-c2cc(N3CCOCC3)nc(N3CCOCC3)n2)cn1 [Buparlisib] (10000 nM),65.4
5,CNC(=O)c1ccc(N2C(=S)N(c3ccc(C#N)c(C(F)(F)F)c3)C(=O)C2(C)C)cc1F [Enzalutamide] (10000 nM),97.2
6,CCOC(=O)CCNc1cc(N2CCc3ccccc3CC2)nc(-c2ccccn2)n1 [GSK-J4] (100000 nM),0.01
7,Cc1cc(Nc2cc(CN3CCOCC3)c3nc(C)c(Cc4ccc(Cl)cc4F)n3n2)n[nH]1 [Gandotinib] (10000 nM),49
8,CNC(=O)c1ccc(N2C(=S)N(c3ccc(C#N)c(C(F)(F)F)c3)C(=O)C23CCC3)cc1F [RD162] (10000 nM),92.6
9,S=P(N1CC1)(N1CC1)N1CC1 [Thio-TEPA] (50000 nM),104

# System: MCF-10A
# Test: as above
# Details: incubation time: 72 h
# Experimental: as §1
row,SMILES,normalised response [%]
1,CCn1c(-c2nonc2N)nc2cnc(Oc3cccc(NC(=O)c4ccc(OCCN5CCOCC5)cc4)c3)cc21 (10000 nM),62.9

# — the supplement of paper PMC4862054
